Assay results reported in ChEMBL document CHEMBL3870364, “Discovery of Spirocyclic Aldosterone Synthase Inhibitors as Potential Treatments for Resistant Hypertension” (ACS Med Chem Lett, 2017).
Converted amounts (≈) assume the structure as drawn.

Assays:
[1] = target: T1, Cytochrome P450 11B1, mitochondrial (Homo sapiens, UniProt P15538); assay: Inhibition of human CYP11B1-8C7 expressed in chinese hamster V79 cells using 11-deoxycortisol as substrate preincubated for 1 hr followed by substrate addition measured for 3 hrs by HTRF assay; format: ADME, cell-based
T1 sequence (P15538 whole entry): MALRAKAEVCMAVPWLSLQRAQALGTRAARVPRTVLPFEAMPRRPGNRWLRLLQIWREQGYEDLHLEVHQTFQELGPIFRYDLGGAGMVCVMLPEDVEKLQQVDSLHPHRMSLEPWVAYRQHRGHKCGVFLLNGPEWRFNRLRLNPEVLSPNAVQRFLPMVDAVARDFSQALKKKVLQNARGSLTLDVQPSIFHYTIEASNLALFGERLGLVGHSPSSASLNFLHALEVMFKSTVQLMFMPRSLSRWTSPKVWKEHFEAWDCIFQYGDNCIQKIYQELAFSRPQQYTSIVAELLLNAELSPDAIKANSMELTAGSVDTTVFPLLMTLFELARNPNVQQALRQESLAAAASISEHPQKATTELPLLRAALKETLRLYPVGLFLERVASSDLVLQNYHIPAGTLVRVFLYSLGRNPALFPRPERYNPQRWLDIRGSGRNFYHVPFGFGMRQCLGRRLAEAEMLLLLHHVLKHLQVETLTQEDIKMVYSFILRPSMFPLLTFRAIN

CYP11B1 / CYP11B2 = assay: Selectivity ratio of IC50 for human CYP11B1-8C7 expressed in chinese hamster V79 cells to IC50 for human CYP11B2-CLE9 expressed in chinese hamster V79 cells; format: ADME, cell-based; details: read-out: Ratio IC50
[2] = Solubility of the compound in PBS buffer at pH 2; format: physicochemical
[3] = Lipophilicity, logD of compound by HPLC analysis; format: physicochemical
[4] = Solubility of the compound in PBS buffer at pH 7; format: physicochemical
[5] = Intrinsic clearance in Sprague-Dawley rat liver microsomes at 0.3 mM preincubated for 10 mins followed by NADPH addition measured up to 45 mins by LC/MS analysis; format: ADME; details: read-out: CLH
[6] = target: T2, Cytochrome P450 11B2, mitochondrial (Homo sapiens, UniProt P19099); assay: Inhibition of human CYP11B2-CLE9 expressed in chinese hamster V79 cells using 11-deoxycorticosterone as substrate preincubated for 1 hr followed by substrate addition measured for 3 hrs by HTRF assay; format: cell-based
T2 sequence (P19099 whole entry): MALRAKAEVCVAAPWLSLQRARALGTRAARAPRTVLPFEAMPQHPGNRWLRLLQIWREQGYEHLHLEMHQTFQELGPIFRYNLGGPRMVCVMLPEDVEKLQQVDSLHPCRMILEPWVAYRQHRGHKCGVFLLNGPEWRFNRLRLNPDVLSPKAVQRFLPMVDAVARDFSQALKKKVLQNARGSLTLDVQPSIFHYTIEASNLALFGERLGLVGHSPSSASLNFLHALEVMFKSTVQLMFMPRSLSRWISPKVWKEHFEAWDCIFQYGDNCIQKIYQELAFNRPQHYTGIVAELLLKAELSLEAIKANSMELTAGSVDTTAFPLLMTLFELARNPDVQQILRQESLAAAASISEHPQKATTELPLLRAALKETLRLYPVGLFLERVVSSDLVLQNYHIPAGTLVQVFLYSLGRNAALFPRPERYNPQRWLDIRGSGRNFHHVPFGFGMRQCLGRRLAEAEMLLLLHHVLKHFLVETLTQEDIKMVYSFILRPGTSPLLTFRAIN

[7] = Half life in Sprague-Dawley rat plasma at 1 mg/kg, iv or 2 mg/kg administered via oral gavage by LC-MS/MS analysis; format: ADME, organism-based
[8] = Oral bioavailability in Sprague-Dawley rat at 2 mg/kg administered via gavage by LC-MS/MS analysis; format: ADME, organism-based; details: in vivo
[9] = Dose normalized AUC in Sprague-Dawley rat at 2 mg/kg administered via oral gavage by LC-MS/MS analysis; format: ADME, organism-based; details: in vivo
[10] = Ratio of IC50 for CYP19A1 (unknown origin) to IC50 for human CYP11B2-CLE9 expressed in chinese hamster V79 cells
[11] = Clearance in Sprague-Dawley rat plasma at 1 mg/kg, iv or 2 mg/kg administered via oral gavage by LC-MS/MS analysis; format: ADME, organism-based
[12] = Ratio of IC50 for human CYP17 expressed in African green monkey COS7 cells to IC50 for human CYP11B2-CLE9 expressed in chinese hamster V79 cells; parameters: species or system COS-7
[13] = Ratio of IC50 for CYP21 (unknown origin) to IC50 for human CYP11B2-CLE9 expressed in chinese hamster V79 cells
[14] = Clearance in Sprague-Dawley rat plasma at 0.5 mg/kg, iv or 1 mg/kg administered via oral gavage by LC-MS/MS analysis; format: ADME, organism-based
[15] = Oral bioavailability in Sprague-Dawley rat at 1 mg/kg administered via gavage by LC-MS/MS analysis; format: ADME, organism-based; details: in vivo
[16] = Dose normalized AUC in Sprague-Dawley rat at 1 mg/kg administered via oral gavage by LC-MS/MS analysis; format: ADME, organism-based; details: in vivo
[17] = Half life in Sprague-Dawley rat plasma at 0.5 mg/kg, iv or 1 mg/kg administered via oral gavage by LC-MS/MS analysis; format: ADME, organism-based

Compound | IC50 [1] [nM] | selectivity ratio (CYP11B1 / CYP11B2) | CLint scaled at 300 µM [5] [mL/min/kg] | IC50 [6] [nM] | also measured
c1ccc2c(N3CCC4(CCOC4)CC3)cncc2c1 | 387 | 24 | < 20 | 13 | solubility [2]: 196 µM (≈ 52.6 µg/mL); logD [3]: 2.6; solubility [4]: 165 µM (≈ 44.3 µg/mL)
CC1(C)CN(c2cncc(N3CCC4(CCC(=O)N4)CC3)n2)C1 | 2190 | 30 | – | 73 | –
c1ccc2c(N3CCC4(CC3)COC4)cncc2c1 | 1590 | 37 | – | 42 | –
c1ccc2c(N3CCC4(CCNC4)CC3)cncc2c1 | 1310 | < 1 | – | > 10000 | –
CN1CC2(CCN(c3cncc([C@@](C)(O)C(F)(F)F)c3)CC2)CC1=O | 10000 | > 22 | – | 448 | –
c1ccc2c(N3CCC4(CCCC4)CC3)cncc2c1 | 1670 | 16 | 1290 | 106 | solubility [2]: 176 µM (≈ 46.9 µg/mL); logD [3]: 5.6; solubility [4]: 3 µM (≈ 0.799 µg/mL)
c1ccc2c(N3CCC4(CCCO4)CC3)cncc2c1 | 787 | 1 | – | 704 | –
CN1CC2(CCN(c3cncc4ccccc34)CC2)CC1=O | 2000 | 9 | 76 | 228 | solubility [2]: 149 µM (≈ 44 µg/mL); logD [3]: 1.6; solubility [4]: 167 µM (≈ 49.3 µg/mL)
c1ccc2c(N3CCC4(CCCCC4)CC3)cncc2c1 | 1570 | 3 | – | 554 | –
CC(C)(C)OC(=O)N1CCC2(CCN(c3cncc4ccccc34)CC2)C1 | > 8000 | > 7 | – | 1130 | –
CC1(C)CN(c2cncc(N3CCC4(CC3)CNC(=O)C4)n2)C1 | 1740 | 51 | – | 34 | –
CN1CC2(CCN(c3cncc([C@](C)(O)C(F)(F)F)c3)CC2)CC1=O | 1540 | 49 | < 20 | 32 | half-life [7]: 72 min; bioavailability [8]: 91%; AUC/dose [9]: 2.15 µM·kg·h/mg; Ratio IC50 [10]: >200; clearance [11]: 24 mL/min/kg; Ratio IC50 [12]: >200; Ratio IC50 [13]: >200
CN1CCC2(CCN(c3cncc4ccccc34)CC2)C1=O | > 8000 | – | – | > 8000 | –
C[C@](O)(c1cncc(N2CCC3(CCOC3)CC2)c1)C(F)(F)F | 355 | 28 | < 20 | 13 | clearance [14]: 36 mL/min/kg; bioavailability [15]: 100%; AUC/dose [16]: 0.85 µM·kg·h/mg; half-life [17]: 30 min
CC(=O)N1CCC2(CCN(c3cncc4ccccc34)CC2)C1 | 1000 | 1 | – | 1030 | –
CN1CC2(CCN(c3cncc(N4CC(C)(C)C4)n3)CC2)CC1=O | 4460 | 47 | – | 94 | –
